Test results: ChEMBL document CHEMBL1201862, “PubChem BioAssay data set” (2004)
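Five compound concentrations were applied to cells in 96-well plates for 48 hours; endpoints were derived by simple linear interpolation of the resulting dose-response curve. GI50 = concentration required for 50% inhibition of growth.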 Calls of active or inactive are those of the source. No stated cut-off is given here; in the data, active = GI50 up to about 1.1 µM and inactive = higher.

Key:
Experiment in all cases: NCI tumour cell line growth inhibition, 48 h
786-0 = tested on: 786-0
A498 = tested on: A498
A549 = tested on: A549
ACHN = tested on: ACHN
CCRF-CEM = tested on: CCRF-CEM
COLO 205 = tested on: COLO 205
DLD-1 = tested on: DLD-1
DMS-114 = tested on: DMS-114
EKVX = tested on: EKVX
HCT-116 = tested on: HCT-116
HCT-15 = tested on: HCT-15
HL-60 = tested on: HL-60
HOP-18 = tested on: HOP-18
HOP-62 = tested on: HOP-62
HOP-92 = tested on: HOP-92
HT-29 = tested on: HT-29
IGROV-1 = tested on: IGROV-1
K562 = tested on: K562
KM-20L2 = tested on: KM-20L2
KM12 = tested on: KM12
LOX IMVI = tested on: LOX IMVI
LXFL 529 = tested on: LXFL 529
M14 = tested on: M14
M19-MEL = tested on: M19-MEL
MOLT-4 = tested on: MOLT-4
Malme-3M = tested on: Malme-3M
NCI-H226 = tested on: NCI-H226
NCI-H23 = tested on: NCI-H23
NCI-H460 = tested on: NCI-H460
NCI-H522 = tested on: NCI-H522
OVCAR-3 = tested on: OVCAR-3
OVCAR-5 = tested on: OVCAR-5
OVCAR-8 = tested on: OVCAR-8
RPMI-8226 = tested on: RPMI-8226
RXF 393 = tested on: RXF 393
RXF 631 = tested on: RXF 631
SF-268 = tested on: SF-268
SF-295 = tested on: SF-295
SF-539 = tested on: SF-539
SK-MEL-28 = tested on: SK-MEL-28
SK-MEL-2 = tested on: SK-MEL-2
SK-MEL-5 = tested on: SK-MEL-5
SK-OV-3 = tested on: SK-OV-3
SN12C = tested on: SN12C
SNB-19 = tested on: SNB-19
SNB-75 = tested on: SNB-75
SR = tested on: SR
SW-620 = tested on: SW-620
TK-10 = tested on: TK-10
U-251 = tested on: U-251
UACC-257 = tested on: UACC-257
UACC-62 = tested on: UACC-62
UO-31 = tested on: UO-31
XF498 = tested on: XF498
CAKI-1 = tested on: CAKI-1
DMS-273 = tested on: DMS-273
HCC 2998 = tested on: HCC 2998
OVCAR-4 = tested on: OVCAR-4
SNB-78 = tested on: SNB-78

Structure (SMILES): Cc1ccccc1C1=[N+]([O-])c2ccccc2C1=O
- GI50 (786-0): 17.4 µM (inactive)
- GI50 (A498): 83.8 µM (inactive)
- GI50 (A549): > 10 µM (inactive)
- GI50 (ACHN): 16.9 µM (inactive)
- GI50 (CCRF-CEM): 18.5 µM (inactive)
- GI50 (COLO 205): 15.7 µM (inactive)
- GI50 (DLD-1): 17.3 µM (inactive)
- GI50 (DMS-114): 13.4 µM (inactive)
- GI50 (EKVX): 21 µM (inactive)
- GI50 (HCT-116): 18.5 µM (inactive)
- GI50 (HCT-15): 14.4 µM
- GI50 (HL-60): 10.3 µM (inactive)
- GI50 (HOP-18): 19.6 µM (inactive)
- GI50 (HOP-62): 23.1 µM (inactive)
- GI50 (HOP-92): 49.4 µM (inactive)
- GI50 (HT-29): 14.5 µM (inactive)
- GI50 (IGROV-1): 18.3 µM (inactive)
- GI50 (K562): 20.9 µM (inactive)
- GI50 (KM-20L2): 17.9 µM (inactive)
- GI50 (KM12): 13.2 µM (inactive)
- GI50 (LOX IMVI): 18.7 µM (inactive)
- GI50 (LXFL 529): 14.9 µM (inactive)
- GI50 (M14): 18.4 µM (inactive)
- GI50 (M19-MEL): 15.2 µM (inactive)
- GI50 (MOLT-4): 19 µM (inactive)
- GI50 (Malme-3M): 18.4 µM (inactive)
- GI50 (NCI-H226): 16.3 µM (inactive)
- GI50 (NCI-H23): 20.3 µM (inactive)
- GI50 (NCI-H460): 19.7 µM (inactive)
- GI50 (NCI-H522): 15.2 µM (inactive)
- GI50 (OVCAR-3): 12.7 µM (inactive)
- GI50 (OVCAR-5): 27.6 µM (inactive)
- GI50 (OVCAR-8): 16.7 µM (inactive)
- GI50 (RPMI-8226): 39.2 µM (inactive)
- GI50 (RXF 393): 21.9 µM (inactive)
- GI50 (RXF 631): 23.6 µM (inactive)
- GI50 (SF-268): 20.5 µM (inactive)
- GI50 (SF-295): 23.7 µM (inactive)
- GI50 (SF-539): 19.1 µM (inactive)
- GI50 (SK-MEL-28): 20.7 µM (inactive)
- GI50 (SK-MEL-2): 3.22 µM (inactive)
- GI50 (SK-MEL-5): 16.8 µM (inactive)
- GI50 (SK-OV-3): > 100 µM (inactive)
- GI50 (SN12C): 17.7 µM (inactive)
- GI50 (SNB-19): 46.1 µM (inactive)
- GI50 (SNB-75): 20.2 µM (inactive)
- GI50 (SR): 54.7 µM (inactive)
- GI50 (SW-620): 26.4 µM (inactive)
- GI50 (TK-10): 18.3 µM (inactive)
- GI50 (U-251): 16.9 µM (inactive)
- GI50 (UACC-257): 14.7 µM (inactive)
- GI50 (UACC-62): 20.1 µM (inactive)
- GI50 (UO-31): 19.1 µM (inactive)
- GI50 (XF498): 17.4 µM (inactive)

Structure (SMILES): Oc1cc(O)c(Oc2cccc(O)c2O)c(O)c1
- GI50 (786-0): 42.6 µM (inactive)
- GI50 (A498): > 100 µM (inactive)
- GI50 (A549): > 100 µM (inactive)
- GI50 (ACHN): > 100 µM (inactive)
- GI50 (CAKI-1): > 100 µM (inactive)
- GI50 (CCRF-CEM): 33.3 µM (inactive)
- GI50 (COLO 205): > 100 µM (inactive)
- GI50 (DMS-114): 57.7 µM (inactive)
- GI50 (DMS-273): > 100 µM (inactive)
- GI50 (EKVX): > 100 µM (inactive)
- GI50 (HCC 2998): > 100 µM (inactive)
- GI50 (HCT-15): > 100 µM
- GI50 (HL-60): 99.5 µM (inactive)
- GI50 (HOP-18): > 100 µM (inactive)
- GI50 (HOP-62): > 100 µM (inactive)
- GI50 (HOP-92): > 100 µM (inactive)
- GI50 (HT-29): > 100 µM (inactive)
- GI50 (IGROV-1): > 100 µM (inactive)
- GI50 (K562): 35 µM (inactive)
- GI50 (KM12): > 100 µM (inactive)
- GI50 (LXFL 529): > 100 µM (inactive)
- GI50 (M14): > 100 µM (inactive)
- GI50 (M19-MEL): 21.1 µM (inactive)
- GI50 (MOLT-4): > 100 µM (inactive)
- GI50 (Malme-3M): > 100 µM (inactive)
- GI50 (NCI-H23): > 100 µM (inactive)
- GI50 (NCI-H460): > 100 µM (inactive)
- GI50 (NCI-H522): 49.7 µM (inactive)
- GI50 (OVCAR-3): 73.3 µM (inactive)
- GI50 (OVCAR-4): 15.5 µM (inactive)
- GI50 (OVCAR-5): > 100 µM (inactive)
- GI50 (OVCAR-8): > 100 µM (inactive)
- GI50 (RPMI-8226): > 100 µM (inactive)
- GI50 (RXF 393): > 100 µM (inactive)
- GI50 (RXF 631): > 100 µM (inactive)
- GI50 (SF-268): > 100 µM (inactive)
- GI50 (SF-295): > 100 µM (inactive)
- GI50 (SF-539): > 100 µM (inactive)
- GI50 (SK-MEL-28): > 100 µM (inactive)
- GI50 (SK-MEL-2): 37.8 µM (inactive)
- GI50 (SK-MEL-5): 18.6 µM (inactive)
- GI50 (SK-OV-3): > 100 µM (inactive)
- GI50 (SN12C): > 100 µM (inactive)
- GI50 (SNB-19): > 100 µM (inactive)
- GI50 (SNB-75): 45.8 µM (inactive)
- GI50 (SNB-78): > 100 µM (inactive)
- GI50 (SW-620): 55.6 µM (inactive)
- GI50 (TK-10): > 100 µM (inactive)
- GI50 (U-251): > 100 µM (inactive)
- GI50 (UACC-257): > 100 µM (inactive)
- GI50 (UACC-62): 35.6 µM (inactive)
- GI50 (UO-31): > 100 µM (inactive)
- GI50 (XF498): 29.5 µM (inactive)
